# Tests used:
# [1] = tested on: DH10B cells; experiment: E. coli growth (OD600) in presence of 3 during SORT-M; format: cell-based
# Description: Chemically competent DH10B cells were transformed with two plasmids: pBKwtPylRS necessary for expression of PylRS, and pBAD_wtT4L_MbPylTXXX plasmids that is required for expression of PyltRNAXXX and expresses lysozyme under arabinose control. […] 200 μL aliquots of these cultures were transferred into a 96-well plate and OD600 measured using a Microplate reader, Infinite 200 Pro (TECAN). OD600 was measured for each sample every 10 min with linear 1 mm shaking between the measurements.
# [2] = In vitro labelling of purified sfGFP150 proteins with tetrazine-dye conjugate 4a, time course and rate constant; conditions: restated in example 6
# Description: FIG. 2C: Determining the rate constant for labelling of sfGFP-3 (10.6 sfGFP incorporating 3 at position 150), with 10 equivalents of 4a. 2 nmol of purified sfGFP-3, (10.6 μM in 20 mM Tris-HCl, 100 mM NaCl, 2 mM EDTA, pH 7.4) were incubated with 20 nmol of tetrazine-dye conjugate 4a (10 μl of a 2 mM solution in DMSO). At different time points 8 μl, aliquots were taken from the solution and quenched with a 700-fold excess of BCN and plunged into liquid nitrogen. Samples were mixed with NuPAGE LDS sample buffer supplemented with 5% β-mercaptoethanol, heated for 10 min to 90° C. and analyzed by 4-12% SDS page. The amounts of labelled proteins were quantified by scanning the fluorescent bands with a Typhoon Trio phosphoimager (GE Life Sciences). Bands were quantified with the ImageQuant™ TL software (GE Life Sciences) using rubber band background subtraction. The rate constant was determined by fitting the data to a single-exponential equation. The calculated observed rate k′ was divided by the concentration of 4a to obtain rate constant k for the reaction. Measurements were done in triplicate. All data processing was performed using Kaleidagraph software (Synergy Software, Reading, UK). […]
smiles,measurement,setting,value
"CC1=CC1COC(=O)NCCCC[C@H](N)C(=O)O (stereo partly drawn) [amino acid 3, N^ε-[((2-methylcycloprop-2-en-1-yl)methoxy)carbonyl]-L-lysine]",toxicity to cells of incorporation via SORT-M,[1]; 0.1 mM,Not Toxic
same,effect on cell growth,[1]; 0.1 or 0.5 mM,little or no effect on cell growth
same,on-protein rate constants of reaction with tetrazines,[2],27 M⁻¹ s⁻¹

# Reference: patent US10774039B2, “Cyclopropene amino acids and methods” (United Kingdom Research and Innovation, priority 2014, dated 2020)
